# Test results reported in patent publication US20240101572A1, “DIHYDROOXADIAZINONE COMPOUND AND PHARMACEUTICAL USE THEREOF” (Japan Tobacco Inc., priority 2022, published 2024).
# pIC50: −log10 of the molar value. Like-named read-outs stand apart in the source and are kept apart here.
# Tests used:
# full-length human PLD1 = full-length human PLD1 (Homo sapiens (Human), UniProt Q13393); assay: Evaluation of human PLD1 enzyme inhibitory activity (Amplex Red / choline oxidase fluorescence); type: biochemical; settings: for pIC50: full-length human PLD1 enzyme, read-out: PLD1 IC50
# Summary of the method: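 N-terminally FLAG-tagged full-length human PLD1 (1-1036), expressed in Expi293F and FLAG-purified, incubated with compound (5% DMSO final) and 1,2-diheptanoyl-sn-glycero-3-phosphocholine for 60 min at room temperature in HEPES pH 7.5 buffer. Released choline detected by Amplex Red/choline oxidase/HRP fluorescence.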
# full-length human PLD2 = full-length human PLD2 (Homo sapiens (Human), UniProt O14939); assay: Evaluation of human PLD2 enzyme inhibitory activity (Amplex Red / choline oxidase fluorescence); type: biochemical; settings: for pIC50: full-length human PLD2 enzyme, read-out: PLD2 IC50
# Summary of the method: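 Enzyme was N-terminal FLAG-tagged full-length human PLD2 (1-933), expressed in Expi293F cells and anti-FLAG purified. Compound (5% DMSO final) was incubated with enzyme (6 nmol/L solution) and 1,2-diheptanoyl-PC (6 mmol/L solution) in HEPES pH 7.5, KCl, EGTA, MgCl2, NP-40, BSA buffer for 60 min at room temperature. Choline was detected with Amplex Red/choline oxidase/HRP.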
# full-length human PLD1, sequence (Q13393 other isoform, or with tags, fused parts or gaps): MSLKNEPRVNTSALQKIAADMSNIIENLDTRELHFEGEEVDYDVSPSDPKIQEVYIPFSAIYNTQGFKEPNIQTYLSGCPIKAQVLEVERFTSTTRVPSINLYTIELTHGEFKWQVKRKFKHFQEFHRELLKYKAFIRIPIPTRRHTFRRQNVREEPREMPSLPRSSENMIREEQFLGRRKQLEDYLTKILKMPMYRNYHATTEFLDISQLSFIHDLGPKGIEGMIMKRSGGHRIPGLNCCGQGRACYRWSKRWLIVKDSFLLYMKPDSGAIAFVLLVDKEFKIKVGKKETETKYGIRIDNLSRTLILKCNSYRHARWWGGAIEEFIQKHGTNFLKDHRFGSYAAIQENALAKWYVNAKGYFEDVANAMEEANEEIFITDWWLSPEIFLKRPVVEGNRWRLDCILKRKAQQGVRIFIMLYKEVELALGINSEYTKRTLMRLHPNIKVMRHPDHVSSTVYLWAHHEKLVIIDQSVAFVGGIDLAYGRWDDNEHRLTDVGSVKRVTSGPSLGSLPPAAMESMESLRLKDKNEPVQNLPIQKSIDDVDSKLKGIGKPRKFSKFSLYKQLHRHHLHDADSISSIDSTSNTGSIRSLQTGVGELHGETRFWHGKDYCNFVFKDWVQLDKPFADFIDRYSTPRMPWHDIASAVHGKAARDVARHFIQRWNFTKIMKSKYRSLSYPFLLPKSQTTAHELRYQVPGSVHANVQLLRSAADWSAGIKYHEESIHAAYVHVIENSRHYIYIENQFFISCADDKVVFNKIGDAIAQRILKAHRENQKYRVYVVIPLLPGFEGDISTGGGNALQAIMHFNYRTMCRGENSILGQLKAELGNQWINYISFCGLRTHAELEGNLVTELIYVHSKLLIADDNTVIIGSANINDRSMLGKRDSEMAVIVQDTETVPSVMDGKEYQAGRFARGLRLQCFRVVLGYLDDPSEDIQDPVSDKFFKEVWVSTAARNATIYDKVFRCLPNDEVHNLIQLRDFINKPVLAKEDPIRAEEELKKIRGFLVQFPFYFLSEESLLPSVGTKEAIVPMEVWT
# full-length human PLD2, sequence (O14939 whole entry): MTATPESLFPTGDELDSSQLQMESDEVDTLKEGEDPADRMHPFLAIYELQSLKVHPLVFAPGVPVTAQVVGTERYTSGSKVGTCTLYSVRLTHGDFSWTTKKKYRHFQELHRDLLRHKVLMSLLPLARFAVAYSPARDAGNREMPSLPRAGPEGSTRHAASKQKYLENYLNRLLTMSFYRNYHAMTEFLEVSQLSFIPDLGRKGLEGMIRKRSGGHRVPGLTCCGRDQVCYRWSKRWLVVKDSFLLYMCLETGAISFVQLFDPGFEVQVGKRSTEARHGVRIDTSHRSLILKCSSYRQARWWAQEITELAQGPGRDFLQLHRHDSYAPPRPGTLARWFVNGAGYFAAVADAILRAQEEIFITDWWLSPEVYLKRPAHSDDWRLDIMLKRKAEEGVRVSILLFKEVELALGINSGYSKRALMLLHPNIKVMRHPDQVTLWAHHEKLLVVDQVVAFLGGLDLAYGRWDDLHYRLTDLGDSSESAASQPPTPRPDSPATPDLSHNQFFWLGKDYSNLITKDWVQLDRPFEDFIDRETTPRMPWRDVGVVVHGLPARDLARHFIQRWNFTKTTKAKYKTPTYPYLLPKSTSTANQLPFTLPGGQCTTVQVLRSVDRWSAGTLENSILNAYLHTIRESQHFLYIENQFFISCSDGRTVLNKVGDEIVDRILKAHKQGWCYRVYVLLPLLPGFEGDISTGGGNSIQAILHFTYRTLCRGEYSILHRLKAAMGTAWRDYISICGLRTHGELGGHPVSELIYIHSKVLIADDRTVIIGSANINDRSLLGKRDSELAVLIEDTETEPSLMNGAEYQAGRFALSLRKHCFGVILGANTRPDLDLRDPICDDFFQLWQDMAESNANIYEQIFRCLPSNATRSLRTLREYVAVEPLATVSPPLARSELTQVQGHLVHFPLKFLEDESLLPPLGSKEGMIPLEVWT
SMILES,pIC50 (full-length human PLD1),pIC50 (full-length human PLD2),also measured
Cc1cc(C(=O)N[C@@H](C)CN2CCC3(CC2)OC(=O)NN=C3c2ccc(F)cc2Br)[nH]n1 [Example 3],7.57,> 8.00,–
CNC(=O)C(=O)N[C@@H](C)C[C@H]1CC[C@]2(CC1)OC(=O)NN=C2c1ccc(C(C)=O)cc1C [Example 167],7.70,> 8.00,–
CNC(=O)C(=O)N[C@@H](C)CN1C[C@H]2CC[C@@H](C1)[C@@]21OC(=O)NN=C1c1ccc(F)cc1Cl [Example 196],7.57,> 8.00,–
CNC(=O)C(=O)N[C@@H](C)C[C@H]1CC[C@]2(CC1)OC(=O)NN=C2c1cnc(C(=O)O)cc1C [Example 186],–,–,"inhibition at 10 µM (full-length human PLD1; 10 μM compound, read-out: PLD1 inhibition rate at 10 μM): 33%; inhibition at 10 µM (full-length human PLD1; read-out: inhibition rate of PLD1 at 10 μM compound): 33%; inhibition at 10 µM (full-length human PLD2; 10 μM compound, read-out: PLD2 inhibition rate at 10 μM): 18%; inhibition at 10 µM (full-length human PLD2; read-out: inhibition rate of PLD2 at 10 μM compound): 18%"
Cc1cc(C(=O)N[C@@H](C)C[C@H]2CC[C@]3(CC2)OC(=O)NN=C3c2cnc(Cl)cc2N2CCOCC2)[nH]n1 [Example 225],6.29,6.69,–
CSc1ccccc1C1=NNC(=O)O[C@]12CC[C@@H](C[C@H](C)NC(=O)c1cc(Cl)no1)CC2 [Example 79],> 8.00,> 8.00,–
Cc1cc(C(=O)N[C@@H](C)CN2CC[C@@]3(C[C@H]2C)OC(=O)NN=C3c2ccc(C#N)cc2Cl)[nH]n1 [Example 232],5.59,5.67,–
CNC(=O)C(=O)N[C@@H](C)C[C@H]1CC[C@]2(CC1)OC(=O)NN=C2c1cccc2c1OCC2 [Example 106],7.59,7.32,–
C[C@@H](CN1CCC2(CC1)OC(=O)NN=C2c1ccc(F)cc1)NC(=O)c1cc2cc(F)ccc2[nH]1 [Example 1],7.48,> 8.00,–
CNC(=O)C(=O)N[C@@H](C)C[C@H]1CC[C@]2(CC1)OC(=O)NN=C2c1ccc(C(C)(C)O)cc1C [Example 178],7.85,7.77,–
Cc1cc(C(=O)N[C@@H](C)C[C@H]2CC[C@]3(CC2)OC(=O)NN=C3c2cnc(C3CC3)cc2Cl)[nH]n1 [Example 266],7.82,> 8.00,–
CNC(=O)C(=O)N[C@@H](C)C[C@H]1CC[C@]2(CC1)OC(=O)NN=C2c1cnc(N2CC3CCC(C2)O3)cc1C [Example 269],7.74,> 8.00,–
C[C@@H](C[C@H]1CC[C@]2(CC1)OC(=O)NN=C2c1cn(C)nc1I)NC(=O)c1cc(Cl)no1 [Example 2-046],7.62,6.93,–
C[C@@H](CN1CCC2(CC1)OC(=O)NN=C2c1cc(C#N)ccc1Br)NC(=O)c1cncn1C [Example 2-053],6.17,6.61,–
"C[C@@H](C[C@H]1CC[C@]2(CC1)OC(=O)NN=C2c1ccc(F)cc1Br)NC(=O)C1CC1c1ccccc1 (single isomer, unassigned) [Example 38]",7.46,7.06,–
[2H]C([2H])([2H])NC(=O)C(=O)N[C@@H](C)CN1CCC2(CC1)OC(=O)NN=C2c1cc(C#N)c(F)cc1Br [Example 2-004],7.17,> 8.00,–
Cc1cc(C(=O)N[C@@H](C)CN2CCC3(CC2)OC(=O)NN=C3c2ccc(Br)cc2C(F)(F)F)[nH]n1 [Example 331],7.49,7.66,–
CNC(=O)C(=O)N[C@@H](C)C[C@H]1CC[C@]2(CC1)OC(=O)NN=C2c1cnc(C(C)(C)O)cc1C [Example 185],7.17,7.19,–
CNC(=O)C(=O)N[C@@H](C)C[C@H]1CC[C@]2(CC1)OC(=O)NN=C2c1ccc(Br)cc1Br [Example 60],> 8.00,> 8.00,–
CNC(=O)C(=O)N[C@@H](C)C[C@H]1CC[C@]2(CC1)OC(=O)NN=C2c1cc(C(=O)N(C)C)ccc1Br [Example 2-036],7.77,> 8.00,–
CNC(=O)C(=O)N[C@@H](C)C[C@H]1CC[C@]2(CC1)OC(=O)NN=C2c1cc(OC(F)(F)F)ccc1Br [Example 294],7.96,> 8.00,–
CNC(=O)C(=O)N[C@@H](C)[C@@H](C)N1CCC2(CC1)OC(=O)NN=C2c1ccc(F)cc1Br [Example 291],6.82,6.63,–
CNC(=O)C(=O)N[C@@H](C)CN1CCC2(CC1)OC(=O)NN=C2c1cccc(F)c1Br [Example 2-030],7.51,7.74,–
CNC(=O)C(=O)N[C@@H](C)CN1CC2CC1CC21OC(=O)NN=C1c1ccc(F)cc1Br (mixture of isomers) [Example 2-005],6.36,7.46,–
C[C@@H](C[C@H]1CC[C@]2(CC1)OC(=O)NN=C2c1ccc(F)cc1Cl)NC(=O)c1cc2cc(S(C)(=O)=O)ccc2[nH]1 [Example 62],6.85,6.65,–
